Assay results as given in patent publication US20230174526A1, “BENZOTHIAZOLYL BIARYL COMPOUND, AND PREPARATION METHOD AND USE” (SHANGHAI RINGENE BIOPHARMA CO., LTD., priority 2020, published 2023).
Read-outs that look alike come from different tables or passages of the source.

What was measured:
[1] = Metabolic stability assay, human liver microsomes; format: in vitro ADME; settings: human liver microsomes 0.5 mg/mL, 1 µM compound, read-out: Liver microsomal stability (T½ /min) human
Protocol: (§1) Metabolic stability assay: A warm incubation for metabolic stability was performed with a system of 150 µL of liver microsomes (final concentration 0.5 mg/mL) containing NADPH (final concentration 1 mM), 1 µM of the test compound and positive control midazolam or negative control atenolol, and the reaction was terminated with acetonitrile containing tinidazole at 0 min, 5 min, 10 min and 30 min, respectively. The reaction was vortexed for 10 min and centrifuged at 15000 rmp for 10 min, and 50 µL of supernatant was taken into the 96-well plate for sampling. The metabolic stability of the compound was calculated by measuring the relative reduction of the drugs.

[2] = Metabolic stability assay, monkey liver microsomes; format: in vitro ADME; settings: monkey liver microsomes 0.5 mg/mL, 1 µM compound, read-out: Liver microsomal stability (T½ /min) monkey
Protocol: as §1

[3] = Metabolic stability assay, rat liver microsomes; format: in vitro ADME; settings: rat liver microsomes 0.5 mg/mL, 1 µM compound, read-out: Liver microsomal stability (T½ /min) Rat
Protocol: as §1

KRAS^G12C/SOS1 = biological target: T1, KRAS^G12C/SOS1 (Homo sapiens, UniProt P01116, G12C); assay: KRAS^G12C/SOS1 protein-protein interaction Binding assay (CisBio kit); settings: class symbols
T1 construct: purchased CisBio
Protocol: CisBio’s KRAS^G12C/SOS1 kit was used to test the efficacy of the compound on inhibiting the protein-protein interaction between SOS1 and KRAS^G12Cby Binding assay.Results were expressed as IC50values.
Test methods: (1) the test compound was tested at a concentration of 1000 nM. Diluted to 3-fold diluted compound of a 200-fold final concentration of 100% DMSO solution in a 384-well plate at 10 concentrations. 50 nL of 200-fold final concentration of compound was transferred to the destination plate 384 well plate using a dispenser Echo 550.50 nL of 100% DMSO was added to the negative control wells and positive control wells; (2) 4-fold final concentration of Tag1 SOS1 solution was prepared using Diluent buffer; (3) 2.5 µL of 4-fold final concentration of Tag1 SOS1 solution was added to the 384-well plate; (4) 4-fold final concentration of Tag2 KRAS^G12C solution was prepared using Diluent buffer; (5) 2.5 µL of 4-fold final concentration of Tag2 KRAS^G12C solution was added to compound wells and positive control wells, respectively; 2.5 µL of diluent buffer was added to negative control wells; (6) the 384-well plate was centrifuged at 1000 rpm for 30 seconds, shaken and mixed, and incubated at room temperature for 15 min; (7) 1-fold final concentration of Anti Tag1 TB3+ solution and 1-fold final concentration of Anti Tag2 XL665 solution were prepared with Detection buffer, and 5 µL of the mixture was added to each well after mixing the two solutions; (8) the 384-well plate was centrifuged at 1000 rpm for 30 seconds, shaken and mixed, and incubated at room temperature for 120 minutes; (9) the Envision enzyme marker was used to read
Em665/620; (10) data analysis, calculation formula; where Min signal is the mean value of negative control wells, Max signal is the mean value of positive control wells.The log value of concentration was used as the X-axis and the percentage inhibition as the Y-axis to fit the quantitative efficacy curve using the log(inhibitor) vs. response Variable slope of the quantitative efficacy curve of the analytical software GraphPad Prism 5 to derive the IC50 value of each compound on the enzyme activity.The fitting formula was: Y=Bottom+(Top Bottom)/(1+10^A((LogIC50X)^∗ HillSlope)).

[4] = Metabolic stability assay, mouse liver microsomes; format: in vitro ADME; settings: mouse liver microsomes 0.5 mg/mL, 1 µM compound, read-out: Liver microsomal stability (T½ /min) Mouse
Protocol: as §1

[5] = system: phosphorylated ERK levels of MiaPaca-2; assay: ERK phosphorylation (western blot), MiaPaca-2; format: cell-based; settings: Homo sapiens, MIA PaCa-2, 24 h
Protocol: (§2) Test method 3 (ERK phosphorylation): Miapaca-2 or H358 cells were inoculated at certain concentrations in 96-well plates and incubated overnight at 37° C., 5% CO2 in a cell culture incubator, and serial dilutions of the test compound (5 concentrations, 3-fold dilution) were added to the plates the next day for 24 h (Miapaca-2) or 3 h (H358), then lysis solution containing protease and phosphatase inhibitor were added to lyse the cells to extract proteins and western blot method was used to detect the level of p-ERK.

[6] = system: phosphorylated ERK levels of NCI-H358; assay: ERK phosphorylation (western blot), H358; format: cell-based; settings: Homo sapiens, 3 h
Protocol: as §2

[7] = system: NCI-H358 (lung cancer) cells; assay: Proliferation test method 1 (2D, MTT), NCI-H358; format: cell-based; settings: Homo sapiens, 5-7 days, read-out: IC50 proliferation inhibitory activity against NCI-H358
Protocol: (§3) Test method 1 (2D):NCI-H358 (lung cancer) and MiaPaca-2 cells (pancreatic cancer) cells (100 µL/well, 20,000 cells/mL) were inoculated in 96-well culture plates supplemented with 10% fetal bovine serum and 1% penicillin/streptomycin sulfate, respectively.Using 0.5% dimethyl sulfoxide as a blank control, cells were treated with a solution of the compound to be tested at a starting concentration of 10 µM, tripled diluted testing solution of the compound in eight gradients were used to treat cells, and then incubated in a 5% CO2 incubator for a certain period of time (5-7 days).At the end of incubation, 10 µL of MTT stock solution (5 mg/mL) was added to each well.The culture plates were incubated at 37° C. for 4 h and then the medium was removed.Dimethyl sulfoxide (100 µL) was added to each well and then shaken sufficiently. The absorbance of the product formazanwas measured at 570 nm on the Thermo Scientific Varioskan Flash multimode reader.IC50 values were obtained by fitting dose-response data into a three-parameter nonlinear regression model using GraphPad Prism 6.0 software.

MiaPaca-2 cells = assay: Proliferation test method 2 (3D, Cell Titer Glo 3D), MiaPaca-2; format: cell-based; settings: Homo sapiens, MIA PaCa-2, 96 h, read-out: IC50 cell proliferation inhibitory activity against MiaPaca-2
Protocol: (§4) Test method 2 (3D): The tumor cells in the logarithmic growth phase were diluted with culture solution to a certain concentration and inoculated on the 96-well plate on the ultra-low attachment surface, and the culture medium was 80 µL/well. Cells were incubated overnight at 37° C. in a humidity chamber. On the second day, a series of diluted test compounds (10 concentrations, 3 times dilution) were added to the plate, 20 µL/well, incubated in an incubator for 96h.The plates are removed and placed at room temperature and incubated with an equal volume of Cell Titer Glo®3D reagent for 1 h. The signal is detected by the En Vision™ plate reader. […] A four-parameter nonlinear regression curve was fitted to the percent inhibition for each concentration of the compound and the IC50 was calculated.

[8] = system: MiaPaca-2 cells (pancreatic cancer); assay: Proliferation test method 1 (2D, MTT), MiaPaca-2; format: cell-based; settings: 5-7 days, read-out: IC50/nM proliferation inhibitory activity on MiaPaca-2 cells
Protocol: as §3

NCI-H358 cells = assay: Proliferation test method 2 (3D, Cell Titer Glo 3D), NCI-H358; format: cell-based; settings: Homo sapiens, NCI-H358, 96 h, read-out: IC50 cell proliferation inhibitory activity against NCI-H358
Protocol: as §4

T1 sequence (P01116 1-188 isoform P01116-2 G12C): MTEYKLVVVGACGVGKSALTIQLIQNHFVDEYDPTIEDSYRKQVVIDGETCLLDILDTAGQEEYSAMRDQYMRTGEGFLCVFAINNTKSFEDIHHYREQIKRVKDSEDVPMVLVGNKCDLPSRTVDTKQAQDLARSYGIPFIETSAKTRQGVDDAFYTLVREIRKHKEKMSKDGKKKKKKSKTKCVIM

Compound | half-life at 1 µM [1] [min] | half-life at 1 µM [2] [min] | half-life at 1 µM [3] [min] | IC50 (KRAS^G12C/SOS1) [nM] | half-life at 1 µM [4] [min] | IC50 [5] [nM] | IC50 [6] [nM] | IC50 [7] [nM] | IC50 (MiaPaca-2 cells) [nM] | IC50 ([8]; 2D) [nM] | IC50 ([8]; Homo sapiens, MIA PaCa-2, 2D) [nM] | IC50 (NCI-H358 cells) [nM]
C=CC(=O)N1CC2C(=O)N(C)c3cnc4c(F)c(-c5c(O)cccc5F)c(Cl)cc4c3N2CC1C (single isomer, unassigned) [Comparative Compound 2-1, reference compound] | 54 | 42 | 41 | 50 to 200 | 47 | – | – | – | – | – | – | –
C=CC(=O)N1CCN(c2nc(OC[C@@H]3CCCN3C)nc3c(F)c(-c4ccc(F)c5sc(N)nc45)c(Cl)cc23)CC1 [Example 1, 1-(4-(7-(2-Amino-7-Fluorobenzo [d] Thiazol-4-yl) -6-Chloro-8-Fluoro-2-(((S)-1-Methylpyrrolin-2-yl) Methoxy) Quinazolin-4-yl) Piperazin-1-Yl) Prop-2-En-1-One] | > 30 | – | – | < 50 | – | < 500 | < 500 | < 100 | – | – | – | –
C=CC(=O)N1CCN(c2c(C#N)cnc3c(F)c(-c4ccc(F)c5sc(N)nc45)c(Cl)cc23)[C@@H](C)C1 [Example 10, 4-((S)-4-Acryloyl-2-Methylpiperazin-1-yl)-7-(2-Amino-7-Fluorobenzo[d]Thiazol-4-yl)-6-Chloro-8-Fluoroquinolin-3-Cyano] | – | – | – | 50 to 200 | – | < 500 | < 500 | < 100 | < 200 | 57.2 | < 100 | < 200
C=C(F)C(=O)N1CCN(c2c(C#N)c(OC[C@@H]3CCCN3C)nc3c(F)c(-c4ccc(F)c5sc(N)nc45)c(Cl)cc23)CC1 [Example 14] | > 30 | > 30 | – | 50 to 200 | > 30 | – | – | – | – | – | 0.9 | –
C=CC(=O)N1CCN(c2c(C#N)c(OCCN(C)C)nc3c(F)c(-c4ccc(F)c5sc(N)nc45)c(Cl)cc23)CC1 [Example 20, 4-(4-Acryloyl Piperazin-1-yl)-7-(2-Amino-7-Fluorobenzo [d] Thiazol-4-yl) -6-Chloro-2-(2-(Dimethylamino) Ethoxy)-8-Fluoroquinolin-3 -Cyano] | – | > 30 | > 30 | < 50 | > 30 | < 500 | < 500 | < 100 | < 200 | – | – | < 200
C=CC(=O)N1CCN(c2nc(OC[C@@H]3CCCN3C)nc3c(F)c(-c4ccc(F)c5sc(N)nc45)c(Cl)cc23)[C@@H](C)C1 [Example 23, 1-((3S)-4-(7-(2-Amino-7-Fluorobenzo [d]thiazol-4-yl) -6-Chloro-8-Fluoro-2-(((S)-1-Methylpyrrolin-2-yl) Methoxy) Quinazolin-4-yl)-3-Methylpiperazin-1-yl) Prop-2-En-1-One] | – | > 30 | > 30 | < 50 | – | – | – | – | – | – | 1.2 | –
